Results published in patent US9133137B2, “Derivatives of gefitinib” (Concert Pharmaceuticals, Inc., priority 2008, dated 2015).
Where two headings read alike, the source gives them in different places.

Assay: Metabolic stability in human liver microsomes (in vitro t1/2)
Assay type: in vitro ADME
Conditions: pooled human liver microsomes, pooled human liver microsomes 3.0 mg/mL, test compound 0.5 μM, NADPH, 37° C.
Description: Microsomal Assay: Human liver microsomes (20 mg/mL) were obtained from Xenotech, LLC (Lenexa, Kans.). βnicotinamide adenine dinucleotide phosphate, reduced form (NADPH), magnesium chloride (MgCl2), and dimethyl sulfoxide (DMSO) were purchased from SigmaAldrich. The incubation mixtures were prepared according to Table 2:
Determination of Metabolic Stability: Two aliquots of this reaction mixture were used for a compound of this invention. The aliquots were incubated in a shaking water bath at 37° C. for 3 minutes. The test compound was then added into each aliquot at a final concentration of 0.5 μM. The reaction was initiated by the addition of cofactor (NADPH) into one aliquot (the other aliquot lacking NADPH served as the negative control). Both aliquots were then incubated in a shaking water bath at 37° C. Fifty microliters (50 μL) of the incubation mixtures were withdrawn in triplicate from each aliquot at 0, 5, 10, 20, and 30 minutes and combined with 50 μL of ice-cold acetonitrile to terminate the reaction. The same procedure was followed for gefitinib and 7-ethoxycoumarin, the positive control. Testing was done in triplicate.
Data analysis: The in vitro half-lives (t1/2s) for test compounds were calculated from the slopes of the linear regression of % parent remaining (ln) vs incubation time relationship using the following formula: in vitro t1/2=0.693/k, where k=[slope of linear regression of % parent remaining(ln)vs incubation time] Data analysis was performed using Microsoft Excel Software.
The metabolic stability of compounds of Formula A or I was tested using pooled liver microsomal incubations. Full scan LCMS analysis was then performed to detect major metabolites. Samples of the test compounds, exposed to pooled human liver microsomes, were analyzed using HPLCMS (or MS/MS) detection. For determining metabolic stability, multiple reaction monitoring (MRM) was used to measure the disappearance of the test compounds. For metabolite detection, Q1 full scans were used as survey scans to detect the major metabolites.

[1] = Experiment No. 1, read-out: t½ (min), Experiment No. 1
[2] = Experiment No. 2, read-out: t½ (min), Experiment No. 2
[3] = Experiment No. 3, read-out: t½ (min), Experiment No. 3
[4] = average of experiments 1-3, read-out: t½ (min), Ave

[2H]C([2H])([2H])Oc1cc2ncnc(Nc3ccc(F)c(Cl)c3)c2cc1OC([2H])([2H])C([2H])([2H])C([2H])([2H])N1C([2H])([2H])C([2H])([2H])OC([2H])([2H])C1([2H])[2H] [Compound 101, N-(3-Chloro-4-fluorophenyl)-7-(methoxy-d3)-6-(3-(morpholino-d8)propoxy-d6)quinazolin-4-amine]
half-life at 0.5 μM [1]: 24.3 min | half-life at 0.5 μM [2]: 23.8 min | half-life at 0.5 μM [3]: 23.1 min | half-life at 0.5 μM [4]: 23.7 min

[2H]C([2H])([2H])Oc1cc2ncnc(Nc3ccc(F)c(Cl)c3)c2cc1OC([2H])([2H])C([2H])([2H])C([2H])([2H])N1CCOCC1 [Compound 102, N-(3-Chloro-4-fluorophenyl)-7-(methoxy-d3)-6-(3-morpholino(propoxy-d6))quinazolin-4-amine]
half-life at 0.5 μM [1]: 22.5 min | half-life at 0.5 μM [2]: 20.8 min | half-life at 0.5 μM [3]: 21.8 min | half-life at 0.5 μM [4]: 21.7 min

[2H]C([2H])([2H])Oc1cc2ncnc(Nc3ccc(F)c(Cl)c3)c2cc1OCCCN1CCOCC1 [Compound 104, N-(3-Chloro-4-fluorophenyl)-7-(methoxy-d3)-6-(3-morpholinopropoxy)quinazolin-4-amine]
half-life at 0.5 μM [1]: 22.5 min | half-life at 0.5 μM [2]: 20.8 min | half-life at 0.5 μM [3]: 21.8 min | half-life at 0.5 μM [4]: 21.7 min

COc1cc2ncnc(Nc3ccc(F)c(Cl)c3)c2cc1OCCCN1CCOCC1 [Gefitinib, (3-chloro-4-fluoro-phenyl)-[7-methoxy-6-(3-morpholin-4-yl-propoxy)-quinazolin-4-yl]-amine]
half-life at 0.5 μM [1]: 19.4 min | half-life at 0.5 μM [2]: 17.6 min | half-life at 0.5 μM [3]: 19.8 min | half-life at 0.5 μM [4]: 18.9 min
